In article PMC9506480, “Synthesis and Evaluation of Antiproliferative Activity, Topoisomerase IIα Inhibition, DNA Binding and Non-Clinical Toxicity of New Acridine–Thiosemicarbazone Derivatives” (Pharmaceuticals, 2022):

Legend:
[1] = tested on: B16-F10 (murine melanoma); experiment: Alamar blue cytotoxicity assay, B16-F10; assay type: cell-based; conditions: Mus musculus, 72 h incubation
Protocol: (§1) The in vitro cytotoxic activity of the compounds (Table 1) was evaluated against cancer cell lines HCT116 (human colon carcinoma), HepG2 (human hepatocellular carcinoma), B16F10 (murine melanoma carcinoma) and non-cancerous cell line MRC-5 (human lung fibroblast) using the Alamar blue assay after 72 h of incubation; doxorubicin (DOX) was used as a positive control. The unsubstituted derivatives on the acridine cores were encoded as CL, and the disubstituted derivatives as DL.
(§2) The human cancer cell lines HCT116 (colon carcinoma) and HepG2 (hepatocellular carcinoma), the mouse cancer cell line B16-F10 (melanoma), and the non-cancerous human cell line MRC-5 (lung fibroblast) were obtained from the American Type Culture Collection (ATCC, Manassas, VA, USA) and cultured according to the ATCC animal cell culture guide. All cell lines tested negative for mycoplasma using a mycoplasma stain kit.
(§3) Cell viability was measured using the Alamar blue assay, as previously described. Cells were seeded in 96-well plates for all experiments. The compounds were dissolved in dimethyl sulfoxide (DMSO, Sigma-Aldrich) and added to each well in eight serial concentrations ranging from 0.19 to 25 μg/mL. As a positive control, doxorubicin was used. After 72 h of treatment, 20 μL of resazurin (0.312 mg/mL) was added to each well. A SpectraMax 190 Micro-plate Reader was used to measure absorbances at 570 and 595 nm (Molecular Devices, Sunnyvale, CA, USA). Nonlinear regression with 95% confidence intervals (CI 95%) was used to calculate the inhibitory concentration of 50% (IC50) using GraphPad Prism software (Intuitive Software for Science; San Diego, CA, USA).

[2] = tested on: MRC-5 (human lung fibroblast); experiment: Alamar blue cytotoxicity assay, non-cancerous MRC-5; assay type: cell-based; conditions: MRC5, 72 h incubation, non-cancerous cell
Protocol: as §1, §2, §3

[3] = tested on: HepG2 (human hepatocellular carcinoma); experiment: Alamar blue cytotoxicity assay, HepG2; assay type: cell-based; conditions: 72 h incubation
Protocol: as §1, §2, §3

[4] = tested on: HCT116 (human colon carcinoma); experiment: Alamar blue cytotoxicity assay, HCT116; assay type: cell-based; conditions: HCT-116, 72 h incubation
Protocol: as §1, §2, §3

[5] = target: T1, recombinant human topoisomerase IIα (p170) (Homo sapiens, UniProt P11388); experiment: Human topoisomerase IIα inhibition assay (pUC19 plasmid relaxation); assay type: biochemical
T1 construct: purchased Sigma-Aldrich
T1 sequence (P11388 whole entry): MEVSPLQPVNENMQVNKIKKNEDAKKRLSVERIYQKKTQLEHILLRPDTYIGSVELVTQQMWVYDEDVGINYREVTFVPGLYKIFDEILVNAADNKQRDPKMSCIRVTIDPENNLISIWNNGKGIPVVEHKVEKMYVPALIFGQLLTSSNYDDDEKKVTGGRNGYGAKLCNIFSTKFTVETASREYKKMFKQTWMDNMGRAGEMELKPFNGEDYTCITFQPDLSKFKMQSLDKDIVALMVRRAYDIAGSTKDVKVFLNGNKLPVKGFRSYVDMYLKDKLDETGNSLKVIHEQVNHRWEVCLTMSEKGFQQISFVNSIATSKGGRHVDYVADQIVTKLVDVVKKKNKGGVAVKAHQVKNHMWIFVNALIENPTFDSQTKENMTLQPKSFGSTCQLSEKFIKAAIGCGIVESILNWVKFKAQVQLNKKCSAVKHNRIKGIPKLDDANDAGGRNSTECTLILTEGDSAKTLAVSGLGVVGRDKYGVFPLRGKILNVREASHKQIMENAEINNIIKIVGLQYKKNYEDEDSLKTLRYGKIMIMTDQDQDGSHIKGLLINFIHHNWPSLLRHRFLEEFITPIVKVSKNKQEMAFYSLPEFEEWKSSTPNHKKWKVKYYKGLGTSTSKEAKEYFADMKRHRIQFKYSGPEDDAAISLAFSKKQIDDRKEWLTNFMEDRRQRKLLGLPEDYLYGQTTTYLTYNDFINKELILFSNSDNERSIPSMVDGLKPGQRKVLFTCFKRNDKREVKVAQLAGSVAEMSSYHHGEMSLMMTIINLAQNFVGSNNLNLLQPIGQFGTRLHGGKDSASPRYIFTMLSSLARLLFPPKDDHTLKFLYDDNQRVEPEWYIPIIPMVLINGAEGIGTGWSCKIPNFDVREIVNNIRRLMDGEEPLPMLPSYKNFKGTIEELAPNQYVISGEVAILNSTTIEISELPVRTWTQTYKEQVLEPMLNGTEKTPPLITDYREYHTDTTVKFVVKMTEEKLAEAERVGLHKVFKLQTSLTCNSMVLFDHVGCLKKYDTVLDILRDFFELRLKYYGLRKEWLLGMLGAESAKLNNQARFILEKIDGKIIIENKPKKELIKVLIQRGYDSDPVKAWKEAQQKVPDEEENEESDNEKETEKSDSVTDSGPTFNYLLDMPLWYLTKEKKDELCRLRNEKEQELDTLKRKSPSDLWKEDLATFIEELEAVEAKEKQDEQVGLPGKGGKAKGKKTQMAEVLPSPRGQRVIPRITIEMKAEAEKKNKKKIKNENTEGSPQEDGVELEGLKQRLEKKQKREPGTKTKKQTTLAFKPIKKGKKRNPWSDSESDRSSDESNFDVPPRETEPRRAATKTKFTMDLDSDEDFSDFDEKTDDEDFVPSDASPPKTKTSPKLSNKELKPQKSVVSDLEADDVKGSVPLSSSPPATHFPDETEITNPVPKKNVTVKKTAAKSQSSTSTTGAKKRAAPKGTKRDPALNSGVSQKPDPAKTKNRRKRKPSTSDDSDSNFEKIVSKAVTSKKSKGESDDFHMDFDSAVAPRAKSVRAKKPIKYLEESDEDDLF
Description: Several studies have shown the ability of acridines to inhibit topoisomerases, being considered the main mechanism responsible for the antiproliferative activities of this scaffold. The possibility of the new acridine derivatives to inhibit Topo IIα in its biological function of DNA double-strand relaxation was investigated in this work. This enzymatic inhibition can be accompanied by the presence of a supercoiled or relaxed DNA band, performed with the pUC19 plasmid, as shown in Figure 2. In this study, mAMSA was used as a positive inhibition control.
For testing the ability of Topo IIα inhibition, the compounds were evaluated in the DNA plasmid relaxation assay. This test consists of evaluating the Topo IIα enzyme activity in the absence and presence of the compound, followed by electrophoresis analysis, as previously described by Almeida et al. (2016). Briefly, 100 ng pUC19 DNA plasmid (Sigma-Aldrich) and 4.0 units of recombinant human (p170) topoisomerase II (Sigma-Aldrich) in relaxation buffer without or with tested compounds were incubated for 30 min at 37 °C. The tested concentrations were […], and amsacrine (mAMSA) was used as a positive control. Reactions were terminated with 1% SDS and digested with proteinase K. Then, the reaction products were analyzed by electrophoresis gel stained with ethidium bromide and photographed under UV light. Quantitative evaluation (% of enzyme inhibition by compounds about the positive control mAMSA) of the gel bands corresponding to supercoiled DNA was performed by densitometry using image-processing software (Scion Image, version Beta 4.0.2.) according to Gouveia et al. (2018).
Figure 2 Effects of mAMSA and its acridine derivatives on topoisomerase IIα activity. Effects of derivatives and positive control on the inhibition of human topoisomerase IIα. Native supercoiled pUC19 was incubated for 30 min at 37 °C with […] of human Topo IIα in the absence (lane 2) or presence of ligands at a concentration 100 μM. Inhibition of Topo IIα-induced DNA relaxation by mAMSA (lane 3) was used as a positive control. DNA samples were run on an agarose gel followed by ethidium bromide staining.

COc1ccc2nc3cc(Cl)ccc3c(NC(=S)N/N=C/c3ccc(Cl)cc3)c2c1 [DL-02, (E)-N-(6-chloro-2-methoxyacridin-9-yl)-2-(4-chlorobenzylidene)hydrazine-1-carbothioamide]
IC50 [1]: 30.6 µM
IC50 [2]: > 60 µM
IC50 [3]: > 60 µM
IC50 [4]: > 60 µM
melting point: 144 to 145 °C

S=C(N/N=C/c1ccc(Cl)cc1Cl)Nc1c2ccccc2nc2ccccc12 [CL-04, (E)-N-(acridin-9-yl)-2-(2,4-dichlorobenzylidene)hydrazine-1-carbothioamide]
IC50 [2]: > 60 µM
IC50 [3]: > 60 µM
IC50 [4]: > 60 µM

COc1ccc2nc3cc(Cl)ccc3c(NC(=S)N/N=C/c3ccc(N(C)C)cc3)c2c1 [DL-09, (E)-N-(6-chloro-2-methoxyacridin-9-yl)-2-(4-(dimethylamino)benzylidene)hydrazine-1-carbothioamide]
IC50 [1]: 46 µM
IC50 [2]: > 60 µM
IC50 [3]: > 60 µM
IC50 [4]: > 60 µM
melting point: 149 to 150 °C

COc1cccc2c1C(=O)c1c(O)c3c(c(O)c1C2=O)C[C@@](O)(C(=O)CO)C[C@@H]3O[C@H]1C[C@H](N)[C@H](O)[C@H](C)O1 [DOX, doxorubicin, reference compound]
IC50 [1]: 0.03 µM
IC50 [2]: 2.22 µM
IC50 [3]: 0.15 µM
IC50 [4]: 0.15 µM

CN(C)c1ccc(/C=N/NC(=S)Nc2c3ccccc3nc3ccccc23)cc1 [CL-09, (E)-N-(acridin-9-yl)-2-(4-(dimethylamino)benzylidene)hydrazine-1-carbothioamide]
IC50 [2]: > 60 µM
IC50 [3]: > 60 µM
IC50 [4]: > 60 µM

Cc1ccc(/C=N/NC(=S)Nc2c3ccccc3nc3ccccc23)cc1 [CL-06, (E)-N-(acridin-9-yl)-2-(4-methylbenzylidene)hydrazine-1-carbothioamide]
IC50 [1]: 23.5 µM
IC50 [2]: 28 µM
IC50 [3]: 58.1 µM
IC50 [4]: 64.8 µM

COc1ccc(/C=N/NC(=S)Nc2c3ccc(Cl)cc3nc3ccc(OC)cc23)cc1 [DL-03, (E)-N-(6-chloro-2-methoxyacridin-9-yl)-2-(4-methoxybenzylidene)hydrazine-1-carbothioamide]
IC50 [1]: > 60 µM
IC50 [2]: > 60 µM
IC50 [3]: > 60 µM
IC50 [4]: > 60 µM
melting point: 148 °C

COc1ccc(/C=N/NC(=S)Nc2c3ccccc3nc3ccccc23)cc1 [CL-03, (E)-N-(acridin-9-yl)-2-(4-methoxybenzylidene)hydrazine-1-carbothioamide]
IC50 [1]: > 70 µM
IC50 [2]: > 70 µM
IC50 [3]: > 70 µM
IC50 [4]: > 70 µM

O=[N+]([O-])c1ccc(/C=N/NC(=S)Nc2c3ccccc3nc3ccccc23)cc1 [CL-05, (E)-N-(acridin-9-yl)-2-(4-nitrobenzylidene)hydrazine-1-carbothioamide]
IC50 [1]: 22.7 µM
IC50 [2]: 26.8 µM
IC50 [3]: > 60 µM
IC50 [4]: > 60 µM

COc1ccc2nc3cc(Cl)ccc3c(NC(=S)N/N=C/c3ccc(Cl)cc3Cl)c2c1 [DL-04, (E)-N-(6-chloro-2-methoxyacridin-9-yl)-2-(2,4-dichlorobenzylidene)hydrazine-1-carbothioamide]
IC50 [1]: > 60 µM
IC50 [2]: > 60 µM
IC50 [3]: > 60 µM
IC50 [4]: > 60 µM
melting point: 192 to 193 °C

S=C(N/N=C/c1ccc(Br)cc1)Nc1c2ccccc2nc2ccccc12 [CL-10, (E)-N-(acridin-9-yl)-2-(4-bromobenzylidene)hydrazine-1-carbothioamide]
IC50 [2]: > 60 µM
IC50 [3]: > 60 µM
IC50 [4]: > 60 µM

COc1ccc2nc3cc(Cl)ccc3c(NC(=S)N/N=C/c3ccc(C)cc3)c2c1 [DL-06, (E)-N-(6-chloro-2-methoxyacridin-9-yl)-2-(4-methylbenzylidene)hydrazine-1-carbothioamide]
IC50 [1]: 26.3 µM
IC50 [2]: > 60 µM
IC50 [3]: 33.4 µM
IC50 [4]: > 60 µM
melting point: 157 to 158 °C
inhibition of Topo IIα enzymatic activity (in words) ([5]; 100 µM): did not show inhibition capacity

S=C(N/N=C/c1ccccc1)Nc1c2ccccc2nc2ccccc12 [CL-01, (E)-N-(acridin-9-yl)-2-benzylidenehydrazine-1-carbothioamide]
IC50 [2]: > 70 µM
IC50 [3]: > 70 µM
IC50 [4]: > 70 µM

Oc1cccc(/C=N/NC(=S)Nc2c3ccccc3nc3ccccc23)c1 [CL-08, (E)-N-(acridin-9-yl)-2-(3-hydroxybenzylidene)hydrazine-1-carbothioamide]
IC50 [1]: 21.3 µM
IC50 [2]: 33.4 µM
IC50 [3]: 49.4 µM
IC50 [4]: 39.2 µM

COc1ccc2nc3cc(Cl)ccc3c(NC(=S)N/N=C/c3ccc([N+](=O)[O-])cc3)c2c1 [DL-05, (E)-N-(6-chloro-2-methoxyacridin-9-yl)-2-(4-nitrobenzylidene)hydrazine-1-carbothioamide]
IC50 [1]: > 60 µM
IC50 [2]: > 60 µM
IC50 [3]: > 60 µM
IC50 [4]: > 60 µM
melting point: 164 to 165 °C

COc1ccc2nc3cc(Cl)ccc3c(NC(=S)N/N=C/c3ccc(O)cc3)c2c1 [DL-07, (E)-N-(6-chloro-2-methoxyacridin-9-yl)-2-(4-hydroxybenzylidene)hydrazine-1-carbothioamide]
IC50 [1]: 21.1 µM
IC50 [2]: 23.6 µM
IC50 [3]: 24.8 µM
IC50 [4]: 28.5 µM
melting point: 163 to 164 °C
inhibition of Topo IIα enzymatic activity (in words) ([5]; 100 µM): able to inhibit the enzymatic activity
% of enzyme inhibition ([5]; 100 µM, densitometry, relative to positive control mAMSA, '-' = no inhibition): 74%
inhibition at 100 µM ([5]; densitometry, relative to positive control mAMSA, '-' = no inhibition, read-out: % of enzyme inhibition): > 74%

COc1ccc2nc3cc(Cl)ccc3c(NC(=S)N/N=C/c3ccc(Br)cc3)c2c1 [DL-10, (E)-2-(4-bromobenzylidene)-N-(6-chloro-2-methoxyacridin-9-yl)hydrazine-1-carbothioamide]
IC50 [1]: 34.6 µM
IC50 [2]: > 50 µM
IC50 [3]: 20.9 µM
IC50 [4]: > 50 µM
melting point: 162 to 163 °C

S=C(N/N=C/c1ccc(Cl)cc1)Nc1c2ccccc2nc2ccccc12 [CL-02, (E)-N-(acridin-9-yl)-2-(4-chlorobenzylidene)hydrazine-1-carbothioamide]
IC50 [2]: > 70 µM
IC50 [3]: > 70 µM
IC50 [4]: > 70 µM
